Results from the supplement of paper PMC10307832.

These cell lines were tested with C1=CC2=C(C=C(C(=C2N=C1)O)N=NC3=CC4=C(C=C3)C=C(C=C4)S(=O)(=O)O)S(=O)(=O)O + CS(=O)(=O)CCNCc1ccc(-c2ccc3ncnc(Nc4ccc(OCc5cccc(F)c5)c(Cl)c4)c3c2)o1 [Lapatinib] (partner 2 µM) (assay: relative viability (nuclei count vs DMSO), 5 days (fraction); higher = more cells survive). Settings: first compound 0.08 µM.
In short: (§1)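 Medians of duplicate plates are given as relative viability. That measure is the nuclei count in treated wells divided by the count in vehicle wells. Counts were taken on 4× images of lung cancer cell lines in 1536-well plates, 5 days after pin-tool dosing the day after seeding with one drug alone or a fixed anchor-drug dose plus five library-drug doses (not always all listed) in √10 steps.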

Cell Line	relative viability
CAL-12T	0.593
NCI-H1651	0.764
EPLC-272H	1
NCI-H2228	0.966
NCI-H1792	0.996
NCI-H1355	1.02
NCI-H3122	0.99
NCI-H1437	0.896
NCI-H1755	1.06
NCI-H2023	0.825
HCC-15	0.963
PC-14	0.369
EKVX	0.215
LC-2-ad	0.982
NCI-H1563	0.957
NCI-H1944	0.8

Same assay, conditions: first compound 0.253 µM

Cell Line	relative viability
BEN	0.623
HARA	0.611
HCC-78	0.625
NCI-H322M	0.639
LCLC-97TM1	0.665
NCI-H2009	0.889
A-427	0.825
NCI-H661	0.49
NCI-H1734	1.03
NCI-H460	1.01
NCI-H2347	0.921
SK-LU-1	0.88
201T	1.04
NCI-H1915	1.01
HCC-827	0.159
LXF-289	0.889
NCI-H23	1.02

Cell Line	relative viability
NCI-H647	0.828
CAL-12T	0.58
NCI-H1651	0.865
EPLC-272H	0.947
NCI-H2228	1.29
NCI-H1792	0.853
NCI-H1355	0.999
NCI-H3122	0.982
NCI-H1437	0.791
NCI-H1755	1.04
NCI-H2023	0.773
HCC-15	0.841
PC-14	0.333
EKVX	0.215
LC-2-ad	0.937
NCI-H1563	1.02
NCI-H1944	0.753

Same assay, conditions: first compound 0.8 µM

Cell Line	relative viability
BEN	0.669
HARA	0.681
HCC-78	0.702
NCI-H322M	0.528
NCI-H2009	0.871
A-427	0.974
NCI-H661	0.431
NCI-H1734	1.05
NCI-H460	1.05
NCI-H2347	0.839
SK-LU-1	0.943
201T	1.01
NCI-H1915	1
HCC-827	0.185
LXF-289	0.897
NCI-H23	1.03
NCI-H647	0.974

Cell Line	relative viability
CAL-12T	0.629
NCI-H1651	0.781
EPLC-272H	0.895
NCI-H2228	0.986
NCI-H1792	0.834
NCI-H1355	0.905
NCI-H3122	1.04
NCI-H1437	0.781
NCI-H1755	1.01
NCI-H2023	0.899
HCC-15	0.843
PC-14	0.322
EKVX	0.172
LC-2-ad	0.922
NCI-H1563	0.916
NCI-H1944	0.765

Same assay, conditions: first compound 2.53 µM

Cell Line	relative viability
BEN	0.766
HARA	0.869
HCC-78	0.922
NCI-H322M	0.613
LCLC-97TM1	0.835
NCI-H2009	0.884
A-427	1.05
NCI-H661	0.626
NCI-H1734	0.911
NCI-H460	1.13
NCI-H2347	0.882
SK-LU-1	0.881
201T	0.997
NCI-H1915	0.883
HCC-827	0.189
LXF-289	0.955
NCI-H23	0.984

Cell Line	relative viability
NCI-H647	0.998
CAL-12T	0.63
NCI-H1651	0.911
EPLC-272H	1
NCI-H2228	1.21
NCI-H1792	0.916
NCI-H1355	1.05
NCI-H3122	0.947
NCI-H1437	0.811
NCI-H1755	1.05
NCI-H2023	0.95
HCC-15	0.832
PC-14	0.357
EKVX	0.208
LC-2-ad	0.954
NCI-H1563	0.976
NCI-H1944	0.753

Same assay, conditions: first compound 8 µM

Cell Line	relative viability
BEN	0.654
HARA	0.778
HCC-78	0.192
NCI-H322M	0.716
LCLC-97TM1	1.04
NCI-H2009	0.836
A-427	1.1
NCI-H661	0.49
NCI-H1734	1.09
NCI-H460	0.965
NCI-H2347	0.824
SK-LU-1	0.959
201T	1.02
NCI-H1915	1.02
HCC-827	0.188
LXF-289	0.903
NCI-H23	1.18

Cell Line	relative viability
NCI-H647	0.904
CAL-12T	0.663
NCI-H1651	0.964
EPLC-272H	0.935
NCI-H2228	1.06
NCI-H1792	0.913
NCI-H1355	1.08
NCI-H3122	1.01
NCI-H1437	0.748
NCI-H1755	1.05
NCI-H2023	0.818
HCC-15	0.888
PC-14	0.329
EKVX	0.219
LC-2-ad	0.589
NCI-H1563	1.13
NCI-H1944	0.565

These cell lines were tested with C1=CC2=C(C=C(C(=C2N=C1)O)N=NC3=CC4=C(C=C3)C=C(C=C4)S(=O)(=O)O)S(=O)(=O)O + C[C@]1(O)C[C@@H](c2nc(-c3ccc4ccc(-c5ccccc5)nc4c3)c3c(N)nccn32)C1 [Linsitinib] (partner 1 µM) in the same assay as above. Settings: first compound 0.08 µM.
In short: as §1

Cell Line	relative viability
BEN	1.11
HARA	1.01
HCC-78	0.614
NCI-H322M	0.905
NCI-H2009	1.21
A-427	1.18
NCI-H661	0.74
NCI-H1734	0.909
NCI-H460	1.08
NCI-H2347	1.01
SK-LU-1	1.38
201T	1.05
NCI-H1915	1.06
HCC-827	1.01
LXF-289	1.05
NCI-H23	0.625
NCI-H647	1.18

Cell Line	relative viability
CAL-12T	0.938
NCI-H1651	1.01
EPLC-272H	1.29
NCI-H2228	0.653
NCI-H1792	0.667
NCI-H1355	0.951
NCI-H3122	0.998
NCI-H1437	1.14
NCI-H1755	1.08
NCI-H2023	0.675
HCC-15	0.978
PC-14	1.03
EKVX	1.15
LC-2-ad	0.623
NCI-H1563	1.35
NCI-H1944	1.21

Same assay, conditions: first compound 0.253 µM

Cell Line	relative viability
BEN	0.887
HARA	1.08
HCC-78	0.543
NCI-H322M	0.925
LCLC-97TM1	0.194
NCI-H2009	1.07
A-427	1.07
NCI-H661	0.57
NCI-H1734	0.877
NCI-H460	0.809
NCI-H2347	0.894
SK-LU-1	1.13
201T	1.01
NCI-H1915	1.14
HCC-827	0.912
LXF-289	0.977
NCI-H23	0.446

Cell Line	relative viability
NCI-H647	1.16
CAL-12T	0.753
NCI-H1651	0.966
EPLC-272H	1.07
NCI-H2228	0.611
NCI-H1792	0.48
NCI-H1355	0.79
NCI-H3122	0.962
NCI-H1437	1.06
NCI-H1755	0.969
NCI-H2023	0.593
HCC-15	0.874
PC-14	0.936
EKVX	0.956
LC-2-ad	0.839
NCI-H1563	1.16
NCI-H1944	1.15

Same assay, conditions: first compound 0.8 µM

Cell Line	relative viability
BEN	0.799
HARA	0.937
HCC-78	0.496
NCI-H322M	0.845
NCI-H2009	1.21
A-427	1.08
NCI-H661	0.489
NCI-H1734	0.816
NCI-H460	0.757
NCI-H2347	0.881
SK-LU-1	1.14
201T	1
NCI-H1915	1.13
HCC-827	0.934
LXF-289	0.957
NCI-H23	0.63
NCI-H647	1.25

Cell Line	relative viability
CAL-12T	0.751
NCI-H1651	1.06
EPLC-272H	1.13
NCI-H2228	0.598
NCI-H1792	0.619
NCI-H1355	0.839
NCI-H3122	0.969
NCI-H1437	0.99
NCI-H1755	0.954
NCI-H2023	0.69
HCC-15	0.788
PC-14	0.962
EKVX	0.891
LC-2-ad	0.861
NCI-H1563	1.29
NCI-H1944	1.24

Same assay, conditions: first compound 2.53 µM

Cell Line	relative viability
BEN	0.94
HARA	1.06
HCC-78	0.469
NCI-H322M	0.916
LCLC-97TM1	0.196
NCI-H2009	1.2
A-427	1.07
NCI-H661	0.498
NCI-H1734	0.884
NCI-H460	0.889
NCI-H2347	1.03
SK-LU-1	1.14
201T	1.05
NCI-H1915	1.08
HCC-827	0.935
LXF-289	1.02
NCI-H23	0.722

Cell Line	relative viability
NCI-H647	1.09
CAL-12T	0.773
NCI-H1651	0.922
EPLC-272H	1.31
NCI-H2228	0.634
NCI-H1792	0.592
NCI-H1355	0.863
NCI-H3122	1.01
NCI-H1437	1.01
NCI-H1755	1.05
NCI-H2023	0.675
HCC-15	0.897
PC-14	0.948
EKVX	1.01
LC-2-ad	0.805
NCI-H1563	1.28
NCI-H1944	1.17

Same assay, conditions: first compound 8 µM

Cell Line	relative viability
BEN	0.827
HARA	0.957
HCC-78	0.399
NCI-H322M	0.99
LCLC-97TM1	0.18
NCI-H2009	1.19
A-427	1.11
NCI-H661	0.512
NCI-H1734	0.897
NCI-H460	0.665
NCI-H2347	1.03
SK-LU-1	1.03
201T	1.07
NCI-H1915	1.14
HCC-827	0.927
LXF-289	0.917
NCI-H23	0.578

Cell Line	relative viability
NCI-H647	1.03
CAL-12T	0.889
NCI-H1651	0.925
EPLC-272H	1.37
NCI-H2228	0.777
NCI-H1792	0.565
NCI-H1355	0.817
NCI-H3122	0.96
NCI-H1437	1.03
NCI-H1755	0.991
NCI-H2023	0.653
HCC-15	0.878
PC-14	1.1
EKVX	0.927
LC-2-ad	0.918
NCI-H1563	1.21
NCI-H1944	1.25
